Measured values as given in patent US9365522B2, “Pyrazole amide derivative” (AMGEN INC., priority 2015, dated 2016).

Target: T1, ligand binding domain of human ROR gamma (Homo sapiens, UniProt P51449)
T1 construct: NM_001001523; expressed in transfected cells; host or cells: HEK293T
T1 sequence (P51449 247-497 isoform P51449-2): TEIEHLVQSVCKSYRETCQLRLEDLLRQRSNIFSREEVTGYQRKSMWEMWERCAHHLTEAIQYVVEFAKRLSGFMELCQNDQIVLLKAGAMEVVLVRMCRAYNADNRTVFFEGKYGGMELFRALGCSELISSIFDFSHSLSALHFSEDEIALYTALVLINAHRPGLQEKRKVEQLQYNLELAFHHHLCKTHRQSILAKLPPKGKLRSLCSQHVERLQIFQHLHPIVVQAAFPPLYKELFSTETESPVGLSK
Assay: ROR gamma reporter gene assay (GAL4-RORγ LBD luciferase, Dual-Glo)
Assay type: cell-based
Conditions: HEK293T cells transfected with pM-ROR gamma, 8 concentrations 3.5 nM to 10.5 μM, 24 h incubation; read-out: result (pIC50, inhibition of RORγ transcriptional activity) (converted)
Description: Luciferase reporter gene assay was used to assess inhibition of RORγ transcriptional activity.
ROR gamma expression vector was prepared by inserting the ligand binding domain of human ROR gamma (amino acid 247-497 of Genbank Accession NO. NM_001001523) adjacent to the yeast GAL4 transcription factor DNA binding domain in the expression vector pM (Clontech). The resulting expression vector pM-ROR gamma was used in transfection experiments together with the pGL4 luciferase reporter plasmid (Promega) containing five copies of the UAS GAL4 recognition site and pRL-CMV plasmids (Promega) containing the constitutive CMV promoter and the renilla luciferase.
For preparing transfection reagent/DNA mixture, 1 μg pM-ROR gamma, 1 μg pGL4 5×UAS, 625 pg pRL-CMV and 6.25 μL FuGENE™ HD transfection reagent (Promega) were mixed in 0.25 mL OPTI-MEM™ (Life technologies) at room temperature. At the same time, Negative control DNA mixture was prepared by using 1 μg pM empty vector instead of pM-ROR gamma plasmid. After a fifteen minute incubation, 0.25 mL of transfection reagent/DNA mixture was added to 1,000,000 of HEK293T cells (ATCC) in 5 mL of OPTI-MEM™ containing 10% Charcoal Stripped Fetal Bovine Serum.
Transfected cells were seeded onto 384 well plate (10 μL/well) and the 7.5 nL of test compounds were added to the wells in 8 concentrations ranging from 3.5 nM to 10.5 μM. The compounds were dissolved in 100% DMSO and the final concentration of DMSO in the assay was 0.075%.
After 24 h of incubation at 37° C., 5% CO2 in a cell culture incubator, the Dual-Glo™ Luciferase Assay System was used to detect activity according to the manufacturer's instructions (Promega, Cat. No.: E2920).
Data was plotted and pIC50 values were calculated using the XLfit program (ID Business Solutions Ltd.).

| IC50 | SMILES |
| --- | --- |
| 31600 pM | CC1(C)[C@@H]2C[C@H](N(CCc3c[nH]c4cccc(Cl)c34)C(=O)c3cnn([C@H]4CC[C@](C)(C(=O)O)CC4)c3C(F)(F)F)C[C@@H]21 [Example 343, trans-4-(4-((2-(4-chloro-1H-indol-3-yl)ethyl)((1R,3r,5S)-6,6-dimethylbicyclo[3.1.0]hexan-3-yl)carbamoyl)-5-(trifluoromethyl)-1H-pyrazol-1-yl)-1-methylcyclohex anecarboxylic acid] |
| 112000 pM | CC(C)=CCN(CC(=O)c1c(Cl)cncc1Cl)C(=O)c1cnn([C@H]2CC[C@H](C(=O)O)CC2)c1C(F)(F)F [Example 35, trans-4-(4-((2-(3,5-dichloropyridin-4-yl)-2-oxoethyl)(3-methylbut-2-en-1-yl)carbamoyl)-5-(trifluoromethyl)-1H-pyrazol-1-yl)cyclohexanecarboxyic acid] |
| ≥ 1.05e+07 pM | CC1(C)[C@@H]2C[C@H](N(CCn3cnc4cccc(Cl)c43)C(=O)c3cnn([C@H]4CC[C@](C)(C(=O)O)CC4)c3C(F)(F)F)C[C@@H]21 [Example 405, trans-4-(4-((2-(7-chloro-1H-benzo(d)imidazol-1-yl)ethyl)((1R,3r,5S)-6,6-dimethylbicyclo[3.1.0]hexan-3-yl)carbamoyl)-5-(trifluoromethyl)-1H-pyrazol-1-yl)-1-methylcyclohexanecarboxylic acid] |
| 17400 pM | C[C@]1(C(=O)O)CC[C@H](n2ncc(C(=O)N(Cc3cc(F)cc(F)c3)C[C@@H](F)c3c(Cl)cccc3Cl)c2C(F)(F)F)CC1 [Example 139, trans-4-(4-(((2S)-2-(2,6-dichlorophenyl)-2-fluoroethyl)-((3,5-difluorophenyl)methyl)carbamoyl)-5-(trifluoromethyl)pyrazol-1-yl)-1-methylcyclohexane-1-carboxylic acid] |
| 74100 pM | CC1(CN(CC(=O)c2c(Cl)cncc2Cl)C(=O)c2cnn([C@H]3CC[C@H](C(=O)O)CC3)c2C(F)(F)F)CCCCC1 [Example 102, trans-4-(4-((2-(3,5-dichloropyridin-4-yl)-2-oxoethyl)-((1-methylcyclohexyl)methyl)carbamoyl)-5-(trifluoromethyl)pyrazol-1-yl)cyclohexane-1-carboxylic acid] |
| 10000 pM | CC(C)(C)CN(CC(=O)c1c(Cl)cccc1Cl)C(=O)c1cnn(C23CCC(C(=O)O)(CC2)CC3)c1C(F)(F)F [Example 317, 4-(4-((2-(2,6-dichlorophenyl)-2-oxoethyl)-(2,2-dimethylpropyl)carbamoyl)-5-(trifluoromethyl)pyrazol-1-yl)bicyclo[2.2.2]octane-1-carboxylic acid] |
| 8910 pM | CC1(C)CCC(N(CC(=O)c2c(Cl)cc(Cl)cc2Cl)C(=O)c2cnn([C@H]3CC[C@](C)(C(=O)O)CC3)c2C(F)(F)F)CC1 [Example 191, trans-4-(4-((4,4-dimethylcyclohexyl)-(2-oxo-2-(2,4,6-trichlorophenyl)ethyl)carbamoyl)-5-(trifluoromethyl)pyrazol-1-yl)-1-methylcyclohexane-1-carboxylic acid] |
| 83200 pM | CC(C)(C)[C@H]1C[C@@H](N(CC(=O)c2c(Cl)cncc2Cl)C(=O)c2cnn([C@H]3CC[C@H](C(=O)O)CC3)c2C(F)(F)F)C1 [Example 131, trans-4-(4-((3-tert-butylcyclobutyl)-(2-(3,5-dichloropyridin-4-yl)-2-oxoethyl)carbamoyl)-5-(trifluoromethyl)pyrazol-1-yl)cyclohexane-1-carboxylic acid] |
| 200000 pM | O=C(CN(Cc1cc(F)cc(F)c1)C(=O)c1cnn([C@H]2CC[C@H](C(=O)O)CC2)c1C(F)(F)F)c1ccc(F)cc1Cl [Example 61, trans-4-(4-((2-(2-chloro-4-fluorophenyl)-2-oxoethyl)(3,5-difluorobenzyl)carbamoyl)-5-(trifluoromethyl)-1H-pyrazol-1-yl)cyclohexanecarboxylic acid] |
